Laboratory results: ChEMBL document CHEMBL1759905, “Nonsteroidal 2,3-dihydroquinoline glucocorticoid receptor agonists with reduced PEPCK activation” (Bioorg Med Chem Lett, 2011)

What was measured:
Androgen receptor = biological target: T1, Androgen receptor (Homo sapiens, UniProt P10275); assay: Binding affinity to androgen receptor
T1 sequence (P10275 whole entry): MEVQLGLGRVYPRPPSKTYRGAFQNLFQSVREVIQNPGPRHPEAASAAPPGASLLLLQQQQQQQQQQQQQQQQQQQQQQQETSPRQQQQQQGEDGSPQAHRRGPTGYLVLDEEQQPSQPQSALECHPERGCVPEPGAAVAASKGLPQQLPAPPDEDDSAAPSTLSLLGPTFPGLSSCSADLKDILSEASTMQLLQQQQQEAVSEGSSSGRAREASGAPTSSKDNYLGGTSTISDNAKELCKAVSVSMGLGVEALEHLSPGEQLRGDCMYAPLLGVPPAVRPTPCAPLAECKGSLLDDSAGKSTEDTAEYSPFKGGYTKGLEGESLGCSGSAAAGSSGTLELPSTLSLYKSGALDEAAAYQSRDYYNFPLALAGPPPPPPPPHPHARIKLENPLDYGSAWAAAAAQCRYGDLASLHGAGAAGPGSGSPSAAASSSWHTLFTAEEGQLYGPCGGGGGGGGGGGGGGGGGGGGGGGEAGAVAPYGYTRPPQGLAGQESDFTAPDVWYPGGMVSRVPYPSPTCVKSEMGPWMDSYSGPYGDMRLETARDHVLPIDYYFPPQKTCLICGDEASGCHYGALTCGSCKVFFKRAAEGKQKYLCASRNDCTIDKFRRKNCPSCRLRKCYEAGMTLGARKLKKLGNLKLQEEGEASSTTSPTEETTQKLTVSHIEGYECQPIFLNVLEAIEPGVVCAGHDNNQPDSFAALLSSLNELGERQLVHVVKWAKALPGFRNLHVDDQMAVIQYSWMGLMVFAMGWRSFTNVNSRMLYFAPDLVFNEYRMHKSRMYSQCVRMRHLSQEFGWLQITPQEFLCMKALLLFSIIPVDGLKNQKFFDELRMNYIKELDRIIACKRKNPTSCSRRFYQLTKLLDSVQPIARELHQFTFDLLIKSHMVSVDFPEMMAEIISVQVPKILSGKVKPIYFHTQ

[1] = biological target: T2, Mineralocorticoid receptor (Homo sapiens, UniProt P08235); assay: Binding affinity to mineralocorticoid receptor
T2 sequence (P08235 whole entry): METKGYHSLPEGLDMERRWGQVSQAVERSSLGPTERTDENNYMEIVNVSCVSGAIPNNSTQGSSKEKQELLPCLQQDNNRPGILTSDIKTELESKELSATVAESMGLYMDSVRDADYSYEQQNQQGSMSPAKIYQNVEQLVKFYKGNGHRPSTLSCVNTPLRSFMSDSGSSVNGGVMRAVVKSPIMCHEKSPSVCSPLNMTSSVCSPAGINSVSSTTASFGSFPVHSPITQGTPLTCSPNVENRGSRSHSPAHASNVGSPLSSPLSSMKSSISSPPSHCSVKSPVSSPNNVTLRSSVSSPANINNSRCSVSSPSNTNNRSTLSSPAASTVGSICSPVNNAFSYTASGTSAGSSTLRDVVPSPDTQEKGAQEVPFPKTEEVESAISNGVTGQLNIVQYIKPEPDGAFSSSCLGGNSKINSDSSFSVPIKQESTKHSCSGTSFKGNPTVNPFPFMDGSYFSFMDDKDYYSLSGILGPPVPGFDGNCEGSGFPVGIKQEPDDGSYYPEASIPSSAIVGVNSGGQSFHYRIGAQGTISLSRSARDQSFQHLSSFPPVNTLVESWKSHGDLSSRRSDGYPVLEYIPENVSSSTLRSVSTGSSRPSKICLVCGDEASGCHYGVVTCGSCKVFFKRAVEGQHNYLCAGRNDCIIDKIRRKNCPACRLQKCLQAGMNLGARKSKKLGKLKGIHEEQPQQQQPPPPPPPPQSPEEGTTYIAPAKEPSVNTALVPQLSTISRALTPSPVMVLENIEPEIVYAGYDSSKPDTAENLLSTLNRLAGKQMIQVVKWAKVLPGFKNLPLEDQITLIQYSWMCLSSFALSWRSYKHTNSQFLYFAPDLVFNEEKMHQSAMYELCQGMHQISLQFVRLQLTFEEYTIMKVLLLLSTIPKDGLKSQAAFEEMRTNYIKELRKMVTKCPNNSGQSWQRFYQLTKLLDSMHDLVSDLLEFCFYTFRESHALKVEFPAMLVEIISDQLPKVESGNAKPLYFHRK

Compound | Ki (Androgen receptor) [nM] | Ki [1] [nM]
CC1(C)C/C(=N\OC(C)(C)C)c2c(cc(F)c(-c3cccc4c(Cl)c[nH]c34)c2F)N1 | 90 | 1040
Cc1c[nH]c2c(-c3c(F)cc4c(c3F)/C(=N/OC(C)(C)C)CC(C)(C)N4)cccc12 | 1000 | 1600
CO/N=C1/c2c(cc(F)c(-c3cccc4c(C)c[nH]c34)c2F)NC(C)(C)C1O (racemic) | 2800 | 1700
Cc1c[nH]c2c(-c3c(F)cc4c(c3F)/C(=N/OC(C)(C)CO)CC(C)(C)N4)cccc12 | 290 | 2700
Cc1c[nH]c2c(-c3c(F)cc4c(c3F)/C(=N/OC(C)C)CC(C)(C)N4)cccc12 | 1500 | 2800
